Laboratory results as given in patent US20030109051A1, “Spin trap for use in biological systems” (RANDOX LABORATORIES LTD, priority 2001, published 2003).
“Also recorded” adds a separate entry of the source.

Experiments:
[1] = Reaction of nitric oxide with spin traps, ESR time course (chemical system); conditions: for trapping of nitric oxide (spin trap for nitric oxide): chemical system, spin trap in toluene, NO-saturated water
Protocol: ESR spectra were obtained using a prototype spectrometer (Jeol (U.K.) Ltd., Welwyn Garden City, England) equipped with a TED11 cylindrical cavity. Samples were analysed at room temperature in a WG-LC-11 quartz flat cell (Wilmad-Glass, Buena, N.J.). In general, the instrument parameters were: microwave frequency 9.2 GHz, microwave power 4 mW, centre field (CF) 336.7 mT, sweep width (SW)±5 mT, number of data points 4095, modulation frequency 100 kHz. For the spin traps reacted with nitric oxide: sweep time (ST) 150 s, time constraint (TC) 0.3 s, modulation width (MW) 0.2 mT. A JEOL ES-DM1 digital manganese oxide marker (0.03 mm of the glass tube inserted per unit on the dial setting) with a dial setting of 500 was used to ensure reproducibility between samples and to identify the position of the signals in the microwave field.
Samples of DBBNB, DMNB and TMNB were weighed into vacutainers, which were then evacuated Toluene and Tris-HCl buffer, 0.01 M, pH 7.4, were deoxygenated by bubbling with nitrogen gas for 15 min. Deoxygenated toluene was added to DBBNB, DMNB and TMNB, using a gas-tight syringe, to give a final concentration of 0.15 M in the reaction mixture.
The apparatus shown in FIG. 5 was flushed with nitrogen for 15 min. The vacutainer containing deionised water (4 ml) was then connected to the system and flushed with nitrogen for a further 15 min, to remove any oxygen present in the system, and therefore to prevent the formation of nitrogen dioxide. The NO gas was bubbled through the deionised water via the system for 45 min. The small amount of nitrogen dioxide present in the pressurised NO container was removed by bubbling through two bottles of 5M NaOH. The gas was then bubbled through a scrubbing bottle containing deionised water to remove any alkaline aerosol contamination. Any excess of NO after the deionised water step was bubbled through a scrubbing bottle containing 1M potassium permanganate/1M NaOH to prevent excess NO escaping from the fumehood. The concentration of NO in the resulting NO-saturated water was taken to be 2.0 mM. […]

[2] = Spin trapping of nitric oxide in whole blood using DMNB (ESR)
Protocol: This may be due to the possibility that any NO present or produced by live leucocytes in whole blood may react with thiol groups to form S-nitrosothiols and consequently be not trapped by DMNB. […] Lipopolysaccharide (LPS), which activates cell function, was also used in order to stimulate the cells to increase production of NO. As NEM may be toxic to cells, it was added i) at the same time as LPS and ii) 3.5 hours after the addition of LPS.
Peripheral blood was taken from a healthy volunteer into a vacutainer containing EDTA. After mixing, 1 ml of the blood was dispensed into each reaction vacutainer by a syringe, as quickly as possible (under 5 min).
DMNB (2) 0.5406 g was dissolved in 16 ml of deoxygenated toluene (by bubbling through nitrogen gas) to make a 0.25 M solution. 700 μl of the solution was added to each reaction mixture to make a final concentration of 0.1 M. A NO solution was made by bubbling nitric oxide gas through deoxygenated water for 45 min. The resulting NO solution (2 mM) was diluted with deoxygenated water to give 10, 35 and 50 nM solutions. An NEM solution (0. 3 M) was prepared by dissolving 0.0751 g of NEM in deoxygenated water. NEM solution (0.3 M), in amounts of 20, 40 and 80 μl, was added to the reaction mixtures to give a concentration, in 1 ml of blood, of 6, 12 and 24 mM. LPS (1 mg) was dissolved in 1 ml of PBS, 0.01 M, pH 7.4. The working stock solution is 100 μg/ml, diluted with the same buffer. The working stock solution of 10 μl was added to the reaction mixture to give a 1 μg/ml of blood. All transfer of reagents was done by gastight syringe through rubber stopper. The difference in volume due to the addition of NEM and LPS was compensated for by addition of deoxygenated water.
NO solution, blood without NEM nor LPS and PBS (0.01 M, pH 7.4) as controls were added to DMNB in toluene directly. NEM without LPS was added to blood immediately prior to addition of DMNB in toluene. When LPS was added to blood alone, the mixture of blood and LPS was incubated at room temperature for 3.5 hour before addition to DMNB in toluene. When both NEM and LPS were added to blood, NEM was either added to the blood together with LPS or added 3.5 hour later (Gust before addition of DMNB). When the DMNB in toluene was added, the reaction mixtures were incubated at room temperature on a roller for 2 hour to ensure effective extraction.
The reaction mixture was then analysed by ESR spectrometry (RE1X, Jeol). Individual results are shown in FIG. 6, and have been reassessed, for comparison purposes, in FIG. 7.

SMILES	reaction time of DBNBS with NO ([1]; comparison value, conditions and source not given)	DMNB-NO adduct ESR signal intensity ([2]; LPS alone (1 μg/ml blood, 3.5 hour) before DMNB)	DMNB-NO adduct ESR signal intensity ([2]; NEM (6, 12, 24 mM) added to blood before DMNB, increase proportional to NEM concentration)	DMNB-NO adduct ESR signal ([2]; both LPS and NEM added to blood)	DMNB-NO adduct ESR signal ([2]; peripheral blood incubated with DMNB in toluene, no NEM, no LPS)	trapping of nitric oxide (spin trap for nitric oxide) [1]
O=Nc1c(Br)cc(S(=O)(=O)[O-])cc1Br.[Na+] [DBNBS, 3,5-dibromo-4-nitrosobenzene sulphonate, sodium salt, reference compound]	approximately 50 hr					
Cc1cccc(C)c1N=O [DMNB, 2,6-Dimethylnitrosobenzene]		did not Increase the signal intensity	increase in signal intensity	significant increase	did not produce a detectable DMNB-NO adduct signal; also recorded: very little signal was detected	shown to trap nitric oxide
Cc1cc(C)c(N=O)c(C)c1 [TMNB, 2,4,6-Trimethylnitrosobenzene]						shown to trap nitric oxide
